These results are taken from article PMC12645083, “Microwave‐Enhanced Synthesis of 2‐Styrylquinoline‐4‐Carboxamides With Promising Anti‐Lymphoma Activity” (Archiv Der Pharmazie, 2025).

Experiment [1] deals with RPMI-8402. Description: In vitro antiproliferative activity, resazurin cell viability. It is filed as cell-based. Conditions: Homo sapiens, T-lymphoblastic leukemia cells, 72 h of treatment, mean ± SEM. (In general: The colour change of resazurin is a common sign of viable cells or microbes.)
Experiment [2] concerns A549. The experiment is described as above. The format is cell-based. As to conditions: Homo sapiens, non-small cell lung cancer, 72 h of treatment, mean ± SEM.
Experiment [3] has as its system SU-DHL-18. Briefly: Antiproliferative activity on lymphoma-derived cell lines, resazurin. As to conditions: Homo sapiens; lymph node lymphoma; 72 h of treatment; mean ± SEM. The format is cell-based. The procedure: (§1) To test the newly synthesized compounds, various human cell lines were employed. HD‐MB03 cells were purchased from DSMZ (Braunschweig, Germany), while A549, MDA‐MB‐231, RPMI‐8420, SU‐DHL‐8, TOLEDO, VL51, SU‐DHL‐1, SU‐DHL‐18, and KM‐H2 were obtained from ATCC (Manassas, VA, USA). Cells were cultured in DMEM (for MDA‐MB‐231 and A549) or RPMI‐1640 (for RPMI‐8420, SU‐DHL‐8, TOLEDO, VL51, SU‐DHL‐1, SU‐DHL‐18, KM‐H2, and HD‐MB03) media (Gibco, Milan, Italy). Both media were supplemented with 115 units/mL penicillin G (Gibco, Milan, Italy), 115 µg/mL streptomycin (Invitrogen, Milan, Italy), and 10% fetal bovine serum (Invitrogen, Milan, Italy). Peripheral blood mononuclear cells (PBMCs) were isolated from healthy donors as previously described. For cytotoxicity assays, PBMCs were resuspended at 5 × 10⁵ cells/mL in complete RPMI medium with or without 2.5 µg/mL phytohemagglutinin (PHA) (Irvine Scientific) to stimulate T‐cell activation and proliferation. All cell lines were maintained at 37°C in a humidified atmosphere containing 5% CO₂. All compounds were dissolved in DMSO at a 10 mM stock concentration. For dose–response assays, cells were seeded in 96‐well plates at densities optimized for each cell line: HD‐MB03 at 10,000 cells/well, A549 at 4000 cells/well, and MDA‐MB‐231 at 7000 cells/well. All other cell lines were seeded at 20,000 cells/well in a final volume of 100 µL per well. After 24 h, cells were treated with a 6‐point serial dilution of compounds starting from 10 µM, in triplicate for statistical analysis. Seventy‐2 h posttreatment, 10 µL of resazurin solution (100 µg/mL) was added to each well, and cells were incubated for an additional 3–6 h. Fluorescence was measured using a Spark 10 M microplate reader (Tecan Group Ltd., Männedorf, Switzerland) with excitation at 535 nm and emission at 600 nm. The IC₅₀ was defined as the concentration of compound required to inhibit cell proliferation by 50% compared to cells treated with the highest DMSO concentration.
(§2) To test the newly synthesized compounds, various human cell lines were employed. HD-MB03 cells were purchased from DSMZ (Braunschweig, Germany), while A549, MDA-MB-231, RPMI-8420, SU-DHL-8, TOLEDO, VL51, SU-DHL-1, SU-DHL-18, and KM-H2 were obtained from ATCC (Manassas, VA, USA). Cells were cultured in DMEM (for MDA-MB-231 and A549) or RPMI-1640 (for RPMI-8420, SU-DHL-8, TOLEDO, VL51, SU-DHL-1, SU-DHL-18, KM-H2, and HD-MB03) media (Gibco, Milan, Italy). Both media were supplemented with 115 units/mL penicillin G (Gibco, Milan, Italy), 115 µg/mL streptomycin (Invitrogen, Milan, Italy), and 10% fetal bovine serum (Invitrogen, Milan, Italy). Peripheral blood mononuclear cells (PBMCs) were isolated from healthy donors as previously described. ^[1] For cytotoxicity assays, PBMCs were resuspended at 5 × 10⁵ cells/mL in complete RPMI medium with or without 2.5 µg/mL phytohemagglutinin (PHA) (Irvine Scientific) to stimulate T cell activation and proliferation. All cell lines were maintained at 37 °C in a humidified atmosphere containing 5% CO₂. All compounds were dissolved in DMSO at a 10 mM stock concentration. For dose–response assays, cells were seeded in 96-well plates at densities optimized for each cell line: HD-MB03 at 10,000 cells/well, A549 at 4,000 cells/well, and MDA-MB-231 at 7,000 cells/well. All other cell lines were seeded at 20,000 cells/well in a final volume of 100 µL per well. After 24 hours, cells were treated with a 6-point serial dilution of compounds starting from 10 µM, in triplicate for statistical analysis. Seventy-two hours post-treatment, 10 µL of resazurin solution (100 µg/mL) was added to each well, and cells were incubated for an additional 3–6 hours. Fluorescence was measured using a Spark 10M microplate reader (Tecan Group Ltd., Männedorf, Switzerland) with excitation at 535 nm and emission at 600 nm. […]

Experiment [4] relates to KM-H2. The description is as above. The format is cell-based. As to conditions: Homo sapiens, Hodgkin lymphoma, 72 h of treatment, mean ± SEM. The procedure:
as §1, §2

Experiment [5] has as its system SU-DHL-1. Described as above. As to conditions: Homo sapiens, histiocytic large cell lymphoma, 72 h of treatment, mean ± SEM. It is filed as cell-based. The procedure: as §1, §2
The test system of experiment [6] is VL51. The description is as above. The format is cell-based. As to conditions: Homo sapiens, splenic B-cell lymphoma, 72 h of treatment, mean ± SEM. The procedure:
as §1, §2

Experiment [7] has as its system TOLEDO. The description is as above. It is filed as cell-based. Conditions: Homo sapiens, diffuse large B-cell lymphoma, 72 h of treatment, mean ± SEM. The procedure:
as §1, §2

The test system of experiment [8] is panel of five lymphoma cell lines (VL51, TOLEDO, SU-DHL-18, SU-DHL-1, KM-H2). Description: Antiproliferative activity, range over the panel of five lymphoma cell lines. The format is cell-based, human. Conditions: range or statement over the lymphoma cell lines, 72 h; for IC50: Homo sapiens.
From the text: Based on these interesting results on hematological malignancies‐derived cell lines, styrylquinolines 4i, 4n, 4s and 4ah were further tested for their antiproliferative activity on a panel of five lymphoma cell lines (VL51, splenic B‐cell lymphoma; TOLEDO, diffuse large B‐cell lymphoma, non‐Hodgkin lymphoma; SU‐DHL‐18, lymph node lymphoma; SU‐DHL‐1, histiocytic large cell lymphoma; KM‐H2, Hodgkin lymphoma) (Table 3). In this case, a different behaviour was observed.
as §1

Experiment [9] relates to VL51. Description: Cell-cycle analysis (flow cytometry). The format is cell-based, human. As to conditions: 2 µM, 48 h. The procedure:
Cells were plated in 12‐well plates at 0.2 × 10⁶ cells/mL in 1 mL of complete medium. After 24 h, cells were treated with the specified compound concentrations. Following an additional 24 h, cells were harvested, centrifuged, and fixed in 70% ice‐cold ethanol. Cells were then stained and processed as previously described. Data acquisition was performed using a Coulter Cytomics FC500 flow cytometer (Beckman Coulter).

For the compound `COc1cc(/C=C/c2cc(C(=O)Nc3c(C)cccc3C)c3ccccc3n2)cc(OC)c1OC` [4n, (E)-N-(2,6-dimethylphenyl)-2-(3,4,5-trimethoxystyryl)quinoline-4-carboxamide], the IC50 is 0.79 ± 0.07 µM in [1]; over 10 µM in experiment [2]; over 10 µM in experiment [3]; over 10 µM in experiment [4]; over 10 µM in experiment [5]; over 10 µM in [6]. The compound further showed an IC50 in [7] of over 10 µM. Also, in experiment [8], the “IC50 values, range over lymphoma cell lines” value is on record as “devoid of antiproliferative activity”.

As to `O=C(Nc1ccc(Cl)cc1)c1cc(/C=C/c2ccccc2[N+](=O)[O-])nc2ccccc12` [4ah, (E)-N-(4-chlorophenyl)-2-(2-nitrostyryl)quinoline-4-carboxamide], the IC50 was 1.33 ± 0.02 µM in [1]; 6.92 ± 0.68 µM in [2]; 3.79 ± 0.51 µM in experiment [3]; 6.74 ± 2.12 µM in experiment [4]; 4.9 ± 0.31 µM in experiment [5]; over 10 µM in [6]. Further, the values for the IC50 in experiment [7] and in experiment [8] were 4.93 ± 0.62 µM and 3.79 to 6.74 µM, respectively.

As to `COc1cc(/C=C/c2cc(C(=O)Nc3ccc([N+](=O)[O-])cc3)c3ccccc3n2)cc(OC)c1OC` [4s, (E)-N-(4-nitrophenyl)-2-(3,4,5-trimethoxystyryl)quinoline-4-carboxamide], the IC50 in experiment [1], in experiment [2], in experiment [3], in experiment [4], in [5] and in experiment [6] was over 10 µM each time. Besides, the IC50 in experiment [7] was over 10 µM. Also, the “IC50 values, range over lymphoma cell lines” value in experiment [8] is recorded as “devoid of antiproliferative activity”.

For `O=C(Nc1ccc([N+](=O)[O-])cc1)c1cc(/C=C/c2ccccc2)nc2ccccc12` [4i, (E)-N-(4-nitrophenyl)-2-styrylquinoline-4-carboxamide], the IC50 is 1.14 ± 0.12 µM in experiment [1]; over 10 µM in experiment [2]; 7.6 ± 2.8 µM in experiment [3]; 2.8 ± 0.21 µM in experiment [4]; 2.32 ± 1.46 µM in experiment [5]; 1.03 ± 0.02 µM in experiment [6]. Moreover, the IC50 in experiment [7] was 1.05 ± 0.09 µM; in [8], 1.03 to 7.6 µM. Besides, the Cell-cycle distribution result in [9] was “significant accumulation of cells in the G₂/M phase”.

One may read the IC50 as the concentration that inhibits the measured activity by half. Lower therefore signals inhibition by little substance.
